Entries after “also recorded” stand apart in the source; their conditions may differ.
Tests used:
tobacco leaves = experiment: Control infiltration of tobacco leaves with compounds alone (necrosis); details: compound at the final 1 mM concentration, no NLP protein, 5 % DMSO (Figure 4)
Protocol: This biological test may be used to assess the impact of compounds on the functionality of NLPs. The NLP protein solution is injected in the absence or presence of the compounds into tobacco leaves of healthy plants. The plants are then observed for 1-3 days and checked for the presence of necrosis.
Compounds: Compounds were prepared as stock solutions with a concentration of 10 mM in DMSO. Appropriate working solutions were prepared by appropriate dilution of the stock solution. The concentration of DMSO in the test solution was 5 %.
Tobacco plants: Tobacco plants (Nicotiana tabacum White Burley) were cultured in chambers for growing plants under controlled conditions of light, humidity and temperature up to the age of 5-7 weeks.
Protein solution, compound and appropriate volume of ultrapure water were mixed in Eppendorf tubes. The mixture was mixed well and injected in the lower epidermis of tobacco leaves. We have injected 50 µL of solution. The area of injected solution was labelled on tobacco leaves. We used ultrapure water, 5 % DMSO, protein solutions of NLPs at different concentrations and appropriate dilutions of compounds as control solutions. The area on the lower side of the leaf, which was infiltrated with solutions, was photographed immediately after injection, and then after 24, 48 and 72 hours. On the third day the plant leaf was photographed also from the top side.

Phytophthora infestans = format: in vivo, Phytophthora infestans (strain 88069); details: for growth of the pathogen P. infestans on potato leaves, visual analysis: 1 mM compound in 10 µL drops with 5 × 10^4 mL^-1 zoospores, 4 days, 18 °C, vs control compound (Figure 6A); for amount of pathogen DNA by real-time PCR, control samples vs samples with compound: 1 mM compound, potato leaves 4 days after infection, Student's t-test, *** P <0.001 (Figure 6B)

SMILES	necrosis of tobacco leaves caused by compound solution alone (tobacco leaves)	growth of the pathogen P. infestans on potato leaves, visual analysis (Phytophthora infestans)	amount of pathogen DNA by real-time PCR, control samples vs samples with compound (Phytophthora infestans)
Cc1ccc2occ(C3NC(C(=O)O)CS3)c(=O)c2c1 (stereo not drawn) [Compound I, 2-(6-methyl-4-oxochromen-3-yl)-1,3-thiazolidin-3-ium-4-carboxylate]	did not cause necrosis; also recorded: Necrosis was not caused	able to inhibit growth of the pathogen	statistically significant amounts of pathogen DNA in control samples
COc1ccc(Nc2ccccc2C(=O)O)cc1 [Compound IIa, 2-[(4-methoxyphenyl)amino]benzoic acid]	did not cause necrosis; also recorded: Necrosis was not caused	able to inhibit growth of the pathogen	statistically significant amounts of pathogen DNA in control samples

Source: EP3315028B1, “USE OF INHIBITORS OF NLP PROTEINS AS PHYTOPHARMACEUTICALS FOR PLANT PATHOGEN CONTROL” (Kemijski Institut, priority 2016, dated 2018)
